Laboratory results from patent publication US20040038968A1, “Thiazolidinedione derivative and its use as antidiabetic” (priority 2000, published 2004).

What was measured:
[1] = Solubility in water (visual, confirmed by HPLC assay of a saturated solution); format: physicochemical; conditions: thermodynamic from solid
Procedure: The solubility of the material was determined by adding water in aliquots from […] to approximately 100 mg of drug substance until the powder had dissolved. The visual solubility was confirmed by an HPLC assay of a saturated solution. Solubility: >100 mg/ml.

[2] = Solid state stability (storage for 1 month, HPLC assay); format: physicochemical; conditions: glass bottle
Procedure: The solid state stability of the drug substance was determined by storing approximately 1.0 g of the material in a glass bottle at a) 40° C./75 % Relative Humidity (RH), open exposure, for 1 month and b) at 50° C., closed, for 1 month. The material was assayed by HPLC for final content and degradation products in both cases.

## CN(CCOc1ccc(CC2SC(=O)NC2=O)cc1)c1ccccn1.[K] (centres unmarked) [Potassium Salt, 5-[4-[2-(N-Methyl-N-(2-pyridyl)amino)ethoxy]benzyl]thiazolidine-2,4-dione, potassium salt]
[1]
  solubility: > 100 mg/mL
[2]; 40° C./75% RH, open exposure
  Degradation (HPLC, degradation products): No significant degradation observed
  HPLC assay for final content: 101 % initial
[2]; 50° C., closed
  Degradation (HPLC, degradation products): No significant degradation observed
  HPLC assay for final content: 99 % initial
